# According to patent US20080213768A1, “Identification and use of biomarkers for non-invasive and early detection of liver injury” (priority 2006, published 2008):
# What was measured:
# Type in all cases: in vivo
# human urine = test: Biochemical profiling of human urine after single oral dose of APAP, correlated with rat; set-up: key: X: Biochemicals significantly changed by APAP in both rat and human biological samples; conditions: humans single oral dose of 4 g APAP
# Protocol: (§1) Six healthy human volunteers received a standardized soy shake diet for 72 hours. Each volunteer received a single oral dose of 4 g APAP (˜50 mg/kg). Serum and urine were sampled at 0, 6, 18, 24, 48, 72 and 96 hours (urine collected between these times). BCP analysis was carried out as described in Example 1.
# rat serum = test: Biochemical profiling (LC-MS) of rat serum after a single dose of acetaminophen; set-up: key to Pipecolate significantly changed / Citrulline significantly changed: (x = significantly changed)
# human serum = test: Biochemical profiling of human serum after single oral dose of APAP, correlated with rat; set-up: key: X: Biochemicals significantly changed by APAP in both rat and human biological samples; conditions: humans single oral dose of 4 g APAP
# Protocol: as §1
# rat urine = test: Biochemical profiling (LC-MS) of rat urine after a single dose of acetaminophen; set-up: key to Pipecolate significantly changed / Ribose significantly changed / Tyrosine significantly changed: (x = significantly changed)
compound,measurement,setting,value
CC(=O)Nc1ccc(O)cc1 [acetaminophen],2-Oxoglutarate significantly changed by APAP in both rat and human,human urine,X
same,5-Hyroxytryptophan significantly changed by APAP in both rat and human,human urine,X
same,Cytosine significantly changed by APAP in both rat and human,human urine,X
same,Glutamate significantly changed by APAP in both rat and human,human urine,X
same,Lysine significantly changed by APAP in both rat and human,human urine,X
same,Serine significantly changed by APAP in both rat and human,human urine,X
same,Citrulline significantly changed,rat serum,x
same,Pipecolate significantly changed,rat serum,x
same,Peak13 presence in serum,rat serum; study of Example 1,not observed
same,"responses of aspartic acid, Peak12, glutamine, Peak20, succinic acid and Peak26 versus control (baseline)",rat serum; study of Example 1,significant variation from control
same,Citrulline significantly changed by APAP in both rat and human,human serum,X
same,Creatinine significantly changed by APAP in both rat and human,human serum,X
same,Glutamate significantly changed by APAP in both rat and human,human serum,X
same,Glutamine significantly changed by APAP in both rat and human,human serum,X
same,Guanosine significantly changed by APAP in both rat and human,human serum,X
same,Homoserine significantly changed by APAP in both rat and human,human serum,X
same,Hypoxanthine significantly changed by APAP in both rat and human,human serum,X
same,Ornithine significantly changed by APAP in both rat and human,human serum,X
same,Phenylalanine significantly changed by APAP in both rat and human,human serum,X
same,Pipecolate significantly changed by APAP in both rat and human,human serum,X
same,Pipecolate significantly changed,rat urine,x
same,Ribose significantly changed,rat urine,x
same,Tyrosine significantly changed,rat urine,x
same,response for Peak13 in urine versus control,rat urine; study of Example 1,did not vary significantly from control
same,"responses of aspartic acid, Peak12, glutamine, Peak20, succinic acid and Peak26 versus control (baseline)",rat urine; study of Example 1,significant variation from control
